Values of other authors, collected in US20250082604A1, “COMPOSITIONS CONTAINING A HIGH CONTENT OF PROANTHOCYANIDINS AND METHODS OF PREPARATION AND USE THEREOF” (priority 2022, published 2025).

System: human HepG2 cells
Settings: literature data (dx.doi.org/10.3390/antiox9060471)

SMILES | AOP1 EC50, data from the literature [µg/mL]
Cc1c(C)c2c(c(C)c1O)CCC(C)(C(=O)O)O2 (stereo not shown) [Trolox] | 138.50
COc1ccc(O)c(C(C)(C)C)c1 [BHA] | 31.54
Cc1cc(C(C)(C)C)c(O)c(C(C)(C)C)c1 [BHT] | 34.25
Oc1ccc(C=Cc2cc(O)cc(O)c2)cc1 [resveratrol] | 64.66
